Reference: PubChem BioAssay (NCI)
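All cell lines were grown in 96-well plates and treated with compound for 48 hours. TGI denotes the concentration required for complete inhibition of growth.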

Columns and labels:
Test in all cases: growth of human tumour cells (NCI), 48 h
[1] = tested on: 786-0 renal
[2] = tested on: A498 renal
[3] = tested on: A549 NSCLC
[4] = tested on: ACHN renal
[5] = tested on: BT-549 breast
[6] = tested on: CAKI-1 renal
[7] = tested on: CCRF-CEM leukemia
[8] = tested on: COLO 205 colon
[9] = tested on: DU-145 prostate
[10] = tested on: EKVX NSCLC
[11] = tested on: HCC-2998 colon
[12] = tested on: HCT-116 colon
[13] = tested on: HCT-15 colon
[14] = tested on: HOP-62 NSCLC
[15] = tested on: HOP-92 NSCLC
[16] = tested on: HS 578T breast
[17] = tested on: HT29 colon
[18] = tested on: IGROV1 ovarian
[19] = tested on: K-562 leukemia
[20] = tested on: KM12 colon
[21] = tested on: LOX IMVI melanoma
[22] = tested on: M14 melanoma
[23] = tested on: MALME-3M melanoma
[24] = tested on: MCF7 breast
[25] = tested on: MDA-MB-231 breast
[26] = tested on: MDA-MB-435
[27] = tested on: MDA-N
[28] = tested on: MOLT-4 leukemia
[29] = tested on: NCI-H226 lung
[30] = tested on: NCI-H23 lung
[31] = tested on: NCI-H460 lung
[32] = tested on: NCI-H522 lung
[33] = tested on: NCI/ADR-RES ovarian
[34] = tested on: OVCAR-3 ovarian
[35] = tested on: OVCAR-4 ovarian
[36] = tested on: OVCAR-5 ovarian
[37] = tested on: OVCAR-8 ovarian
[38] = tested on: PC-3 prostate
[39] = tested on: RPMI-8226 leukemia
[40] = tested on: RXF 393 renal
[41] = tested on: SF-268 CNS
[42] = tested on: SF-295 CNS
[43] = tested on: SK-MEL-2 melanoma
[44] = tested on: SK-MEL-28 melanoma
[45] = tested on: SK-MEL-5 melanoma
[46] = tested on: SK-OV-3 ovarian
[47] = tested on: SN12C renal
[48] = tested on: SNB-19 CNS
[49] = tested on: SNB-75 CNS
[50] = tested on: SR leukemia
[51] = tested on: SW-620 colon
[52] = tested on: T-47D breast
[53] = tested on: TK-10 renal
[54] = tested on: U251 CNS
[55] = tested on: UACC-257 melanoma
[56] = tested on: UACC-62 melanoma
[57] = tested on: UO-31 renal
[58] = tested on: HL-60(TB) leukemia
[59] = tested on: SF-539 CNS

Measured: TGI

CC1NC(=O)c2c(-c3ccccc3)nn(-c3ccccc3)c2NC1=O (stereo not given)
not listed: [58] | [59]
> 100 µM: all other assays above

Clc1ccc(-c2cn3c(nc4ccccc43)c(/C=C/c3cccs3)n2)cc1
not listed: [6] | [10] | [28] | [32] | [37] | [42]
> 100 µM: all other assays above
